Key:
HepG2 cells [1] = test: Fatty acid ([3H]oleate:albumin) influx in HepG2 cells; type: cell-based, human
iPLA2ß-/- hepatocytes = test: Fatty acid influx in primary hepatocytes from iPLA2ß-/- mice; type: cell-based; settings: UDCA-LPE pretreatment (Fig. 4B)
[2] = tested on: fatty acid uptake complex components; test: Transcript levels of fatty acid uptake complex components by semi-quantitative RT-PCR in HepG2 cells; type: cell-based, human; settings: after 1 h of treatment, UDCA-LPE 50 µM (Fig. 6)
Text: The following forward and reverse primers (Sigma) were used for RT-PCR: iPLA2ß, [NT] (SEQ ID NO: 1) and [NT] (SEQ ID NO: 2); CD36, [NT] (SEQ ID NO: 3) and [NT] (SEQ ID NO: 4); […] (SEQ ID NO: 5) and [NT] (SEQ ID NO: 6); and caveolin-1, [NT] (SEQ ID NO: 7) and reverse [NT] (SEQ ID NO: 8). The primers for FATP4 and ß-actin (internal control) were the same as those previously used as described in […] et al. Am J Physiol Endocrinol Metab 2011; 301, 785-796.

cytosolic LPC = test: Cytosolic LPC concentration in HepG2 cells; type: cell-based, human
Experimental: LPC concentration in cytosolic supernatants was measured as previously described (Kishimoto T et al. Clin. Biochem. 2002; 35: 411-416).

p-JNK1 = test: Cytosolic p-JNK1 levels in HepG2 cells (western blotting); type: cell-based, human
Experimental: Immunoblotting was performed according to a standard protocol as set out in Sun Q., et al. Biol Med (Maywood). 2012; 237: 178-185. The following primary antibodies to human proteins were used: mouse a-phosphorylated c-Jun N-terminal kinase 1 (p-JNK1) (88.20; Santa Cruz Biotechnology Inc., Heidelberg, Germany) at 1:500; mouse a-CD36 (1.BB.344; Santa Cruz Biotechnology Inc.) at 1:200; rabbit a-iPLA2ß (558-588; Abcam) at 1:500; mouse a-FABPPM (331-430; Abnova, Heidelberg, Germany) at 1:1,000; mouse a-FATP4 (1F4-1B10; Abnova) at 1:500; mouse a-caveolin-1 (C20B; Santa Cruz Biotechnology Inc.) at 1:500; mouse a-flotilin1 (F-3; Santa Cruz Biotechnology Inc.) at 1:500; and mouse a-ß-actin (AC-15; Sigma) at 1:100,000. Anti-mouse or -rabbit HRP (96910 and 107487, respectively; Dianova, Hamburg, Germany) were used at 1:10,000 dilution as secondary antibodies. To estimate the protein concentration a semi-quantitative densitometry was performed as described in Sun Q et al. (loc cit.).

HepG2 cells [3] = test: Cellular steatohepatitis model in HepG2 cells; type: cell-based, human; settings: UDCA-LPE 100 µM, 1 h, before or after 3 h 400 µM oleate:albumin (4:1)
Experimental: To induce steatosis, HepG2 cells were incubated with 400 µM oleate:albumin (4:1) for 3 h. The effect of UDCA-LPE (100 µM; 1 h) relative to PBS (control) was examined by pretreating cells before or after the 3- h fatty acid feeding period (with continuous fatty acid feeding thereafter). Fatty acid loading was examined by staining cells with Oil Red (Sigma) and by immunodetection of triglycerides (ab65336; Abcam, Cambridge, UK). In addition, the release of lactate dehydrogenase (LDH) (11644793001; Roche, Mannheim, Germany) was determined as a measure of apoptosis.

CaCo2 cells = test: Fatty acid influx in CaCo2 cells; type: cell-based
[4] = biological target: T1, four-protein fatty acid uptake complex within the DRM-domain of CaCo2 plasma membranes (Homo sapiens, UniProt O60733); test: Disintegration of the fatty acid uptake complex in CaCo2 cells; type: cell-based
T1 construct: the DRM domains of the plasma membrane were isolated from native CaCo2 cells; endogenous in cells; host or cells: CaCo2
T1 sequence (O60733 1-806): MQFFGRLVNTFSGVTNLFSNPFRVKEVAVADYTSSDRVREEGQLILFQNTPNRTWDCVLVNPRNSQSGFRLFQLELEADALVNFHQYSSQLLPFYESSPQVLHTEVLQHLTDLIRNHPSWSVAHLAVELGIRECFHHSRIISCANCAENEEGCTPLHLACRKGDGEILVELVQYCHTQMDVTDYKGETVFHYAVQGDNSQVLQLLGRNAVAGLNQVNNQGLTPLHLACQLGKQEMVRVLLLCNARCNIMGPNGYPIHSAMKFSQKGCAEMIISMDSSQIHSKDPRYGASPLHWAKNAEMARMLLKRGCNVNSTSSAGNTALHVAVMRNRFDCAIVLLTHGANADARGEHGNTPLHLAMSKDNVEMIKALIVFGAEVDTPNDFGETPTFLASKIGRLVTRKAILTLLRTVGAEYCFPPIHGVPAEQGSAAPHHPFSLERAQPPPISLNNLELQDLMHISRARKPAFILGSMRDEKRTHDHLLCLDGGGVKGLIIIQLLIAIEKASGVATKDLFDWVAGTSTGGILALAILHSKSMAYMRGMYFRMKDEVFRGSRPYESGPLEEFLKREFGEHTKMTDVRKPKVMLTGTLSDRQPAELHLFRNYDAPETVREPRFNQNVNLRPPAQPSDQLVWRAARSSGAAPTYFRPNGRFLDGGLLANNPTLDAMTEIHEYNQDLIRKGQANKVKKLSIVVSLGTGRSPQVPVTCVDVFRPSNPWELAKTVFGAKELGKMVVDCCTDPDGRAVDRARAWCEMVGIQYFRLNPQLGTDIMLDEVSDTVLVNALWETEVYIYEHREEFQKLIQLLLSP
Experimental: All other experiments were assessed with CaCo2 cells as described in Ex. 1, mutatis mutandis.

ursodeoxycholatelysophosphatidylethanolamide [UDCA-LPE]
IC50 (HepG2 cells [1]; 1-h treatment with increasing concentrations (Fig. 2A), read-out: inhibition of fatty acid influx (IC50)): 47 µM | time until fatty acid influx reached a minimum (HepG2 cells [1]; UDCA-LPE 100 µM (Fig. 1A)): 60 min | time after withdrawal until original fatty acid influx rate was restored (HepG2 cells [1]; after UDCA-LPE withdrawal (Fig. 1A)): 6 h | Km (HepG2 cells [1]; pretreatment UDCA-LPE 100 µM, 1 h or MAFP 150 µM, 1 h): 0.251 µM | Vmax of [3H]oleate influx (HepG2 cells [1]; pretreatment UDCA-LPE 100 µM, 1 h or MAFP 150 µM, 1 h, control 61.80): 28.43 nmol/mg protein/min | fatty acid influx (iPLA2ß-/- hepatocytes): not | transcript levels of all fatty acid uptake complex components [2]: < 10 % of initial values | IC50 (cytosolic LPC; 30 min treatment (Fig. 7), read-out: suppression of cytosolic LPC (IC50)): 47 µM | cytosolic LPC (cytosolic LPC; UDCA-LPE 50 µM (Fig. 6), before treatment 8.0 ± 1.3): 3.5 ± 0.2 µmol/mg protein | pretreatment time achieving the threshold LPC concentration at which p-JNK1 began to decrease (p-JNK1; > 50 µM UDCA-LPE): > 30 min | pretreatment concentration achieving the threshold LPC concentration at which p-JNK1 began to decrease (p-JNK1; for > 30 min): > 50 µM | fatty acid-induced inflammation (LDH release) (HepG2 cells [3]): prevented or reversed | steatosis (HepG2 cells [3]): prevented or reversed | apical fatty acid influx (CaCo2 cells; CaCo2 cells cultured 21 days (polarized), pretreatment at the apical site): significantly inhibited | inhibition of fatty acid influx (CaCo2 cells; UDCA-LPE 100 µM, 1 h, scrambled siRNA control conditions): > 50% | fatty acid influx kinetics (CaCo2 cells; preincubation of CaCo2 cells): non-competitive inhibition | minimal concentration for disintegration of the complex [4]: 50 µM | exposure time for disintegration of the complex ([4]; 50 µM): 30 min

From patent EP2929785A1, “A PLA inhibitor for inhibition of fat absorption” (PAT GmbH, priority 2014, dated 2015)
